According to patent US20110217715A1, “GENE EXPRESSION IN DUCHENNE MUSCULAR DYSTROPHY” (CHILDREN'S HOSPITAL MEDICAL CENTER, priority 2008, published 2011):

Tested on: mRNA expression in peripheral blood of individuals with DMD
Experiment: Whole-blood gene expression microarray: DMD administered deflazacort vs DMD administered prednisone
Format: in vivo, human
Conditions: for p-value / p-value (t-test, deflazacort vs. prednisone) / p-value (t-test, deflazacort vs prednisone): deflazacort vs. prednisone
Procedure: Fifteen ml of blood was collected from each individual into 6 PAXgene® Vacutainer® tubes (PreAnalytiX, Germany) by antecubital fossa venipuncture. PAXgene® tubes contain a proprietary reagent that immediately stabilizes RNA, thus reducing RNA degradation and minimizing gene expression changes following phlebotomy. The tubes were then inverted 20 times, then remained undisturbed for 2 h at room temperature (about 19° C. to about 22° C.), and then stored at -70° C. until processed. Total RNA was isolated using the Paxgene® blood RNA kit (PreAnalytiX, Germany) according to the manufacturers instructions. The RNA isolated is from all cells in whole blood. Typical yields of total RNA isolated from about 7.5 ml of human whole blood were between 10 μg RNA and 40 μg RNA. RNA quality and purity was analyzed by spectrophotometry using the Nanodrop ND-1000, and RNA integrity was analyzed using the Agilent 2100 Bioanalyzer. […] Sample labeling, hybridization to chips, and image scanning were performed using standard Affymetrix protocols. For each whole blood sample from control individuals and individuals with DMD, total RNA was labeled using the One-Cycle Target Labeling protocol and hybridized to the arrays. […] Double-stranded cDNA synthesis, biotin-labeled cRNA synthesis, and cRNA fragmentation were performed according to the Affymetrix GeneChip Eukaryotic Expression Analysis protocol. The labeled, fragmented cRNA (15 μg) was hybridized at 45° C. overnight. After hybridization, the array was washed and stained. The arrays were scanned with an argon-ion laser at λ=570 nm, with a resolution of 3 μm/pixel (Affymetrix, Inc.). After scanning the array, the raw probe level values for each probe were saved in Affymetrix.cel files. […] Statistical analyses, including t-test analyses, unsupervised hierarchical clustering, and principal component analyses were conducted using Genespring 7.2 software ([…]® 7, Silicon Genetics, Redwood City Calif.). […] Corrections for multiple comparisons used a Benjamini-Hochberg False Discovery Rate (FDR) of 0.05, disclosed in Tang et al., J Cereb Blood Flow Metab 26 (2006) 1089, which is expressly incorporated by reference herein in its entirety. […] Sample processing and array hybridization, probe-level data analysis, and statistical analysis were identical to Example 1.

CC(=O)OCC(=O)[C@@]12N=C(C)O[C@@H]1C[C@H]1[C@@H]3CCC4=CC(=O)C=C[C@]4(C)[C@H]3[C@@H](O)C[C@@]12C [deflazacort]
expression of retinoic acid receptor α (RARa) (deflazacort compared to prednisone, blood): significantly up-regulated
p-value (AA100891, Nucleic Acid No. 2100): 0.0498
p-value (AA534416, Nucleic Acid No. 2105): 0.0123
p-value (t-test, deflazacort vs. prednisone) (AA679303, Nucleic Acid No. 2067): 0.0185
p-value (AA702409, Nucleic Acid No. 2116): 0.0453
p-value (t-test, deflazacort vs. prednisone) (AA789296, Nucleic Acid No. 2010): 0.0291
p-value (t-test, deflazacort vs. prednisone) (AA830854, Nucleic Acid No. 1325): 0.0452
p-value (t-test, deflazacort vs prednisone) (AB023216, Nucleic Acid No. 2081): 0.00521
p-value (t-test, deflazacort vs prednisone) (AB033106, Nucleic Acid No. 2083): 0.0446
p-value (AF005774, Nucleic Acid No. 1945): 0.0104
p-value (AF009616, Nucleic Acid No. 1950): 0.0293
p-value (AF009619, Nucleic Acid No. 1943): 0.0064
p-value (AF015451, Nucleic Acid No. 1946): 0.0107
p-value (AF041459, Nucleic Acid No. 1944): 0.00822
p-value (AF041461, Nucleic Acid No. 1947): 0.013
p-value (AF075067, Nucleic Acid No. 2112): 0.0376
p-value (AF083208, Nucleic Acid No. 1892): 0.00348
p-value (t-test, deflazacort vs prednisone) (AF098114, Nucleic Acid No. 2069): 0.0202
p-value (AF147300, Nucleic Acid No. 1995): 0.0271
p-value (t-test, deflazacort vs prednisone) (AF207547, Nucleic Acid No. 2088): 0.00744
p-value (AF285167, Nucleic Acid No. 1894): 0.0117
p-value (AF313468, Nucleic Acid No. 1956): 0.0435
p-value (AF400600, Nucleic Acid No. 1955): 0.0263
p-value (AF400602, Nucleic Acid No. 1954): 0.0148
p-value (t-test, deflazacort vs prednisone) (AF499918, Nucleic Acid No. 2091): 0.0369
p-value (t-test, deflazacort vs. prednisone) (AI017983, Nucleic Acid No. 1338): 0.0323
p-value (t-test, deflazacort vs. prednisone) (AI056689, Nucleic Acid No. 2031): 0.043
p-value (t-test, deflazacort vs prednisone) (AI080505, Nucleic Acid No. 2099): 0.0412
p-value (AI091372, Nucleic Acid No. 1918): 0.00592
p-value (AI093231, Nucleic Acid No. 1906): 0.0085
p-value (t-test, deflazacort vs. prednisone) (AI250910, Nucleic Acid No. 2014): 0.0029
p-value (AI342146, Nucleic Acid No. 1905): 0.048
p-value (t-test, deflazacort vs. prednisone) (AI393727, Nucleic Acid No. 2034): 0.0345
p-value (AI436803, Nucleic Acid No. 1916): 0.00828
p-value (t-test, deflazacort vs prednisone) (AI535735, Nucleic Acid No. 2089): 0.0426
p-value (t-test, deflazacort vs. prednisone) (AI608725, Nucleic Acid No. 2053): 6.16E−05
p-value (AI651726, Nucleic Acid No. 2119): 0.0107
p-value (AI670862, Nucleic Acid No. 2017): 0.0109
p-value (t-test, deflazacort vs. prednisone) (AI719730, Nucleic Acid No. 2039): 0.00281
p-value (AI762695, Nucleic Acid No. 1996): 0.032
p-value (AI768497, Nucleic Acid No. 1910): 0.0137
p-value (t-test, deflazacort vs prednisone) (AI814925, Nucleic Acid No. 2072): 0.0422
p-value (t-test, deflazacort vs prednisone) (AI830331, Nucleic Acid No. 2075): 0.0149
p-value (t-test, deflazacort vs. prednisone) (AI830490, Nucleic Acid No. 2028): 0.0146
p-value (AI860150, Nucleic Acid No. 2018): 0.026
p-value (AI862537, Nucleic Acid No. 2118): 0.0333
p-value (t-test, deflazacort vs. prednisone) (AI868267, Nucleic Acid No. 1444): 0.0285
p-value (t-test, deflazacort vs. prednisone) (AI906424, Nucleic Acid No. 2044): 0.0287
p-value (t-test, deflazacort vs. prednisone) (AI926544, Nucleic Acid No. 2054): 0.0136
p-value (AI985590, Nucleic Acid No. 1901): 0.0389
p-value (AJ422148, Nucleic Acid No. 2104): 0.026
p-value (AK000119, Nucleic Acid No. 2121): 0.0375
p-value (t-test, deflazacort vs. prednisone) (AK023348, Nucleic Acid No. 2037): 0.0274
p-value (AK024677, Nucleic Acid No. 1915): 0.00386
p-value (t-test, deflazacort vs. prednisone) (AK024911, Nucleic Acid No. 2045): 0.0429
p-value (AK025217, Nucleic Acid No. 1997): 0.0404
p-value (t-test, deflazacort vs. prednisone) (AK074686, Nucleic Acid No. 2042): 0.0406
p-value (AK090660, Nucleic Acid No. 2080): 0.0288
p-value (t-test, deflazacort vs. prednisone) (AK092709, Nucleic Acid No. 2013): 0.0392
p-value (AL021977, Nucleic Acid No. 2110): 0.0121
p-value (AL049250, Nucleic Acid No. 2101): 0.0486
p-value (t-test, deflazacort vs. prednisone) (AL049273, Nucleic Acid No. 1402): 0.0448
p-value (t-test, deflazacort vs prednisone) (AL137645, Nucleic Acid No. 906): 0.0416
p-value (t-test, deflazacort vs. prednisone) (AL832727, Nucleic Acid No. 2022): 0.0334
p-value (AL833448, Nucleic Acid No. 2084): 0.0326
p-value (AU145206, Nucleic Acid No. 1909): 0.046
p-value (AU158358, Nucleic Acid No. 1897): 0.0325
p-value (AV700030, Nucleic Acid No. 2063): 0.0254
p-value (AV722693, Nucleic Acid No. 1994): 0.000689
p-value (AW070431, Nucleic Acid No. 2113): 0.0198
p-value (t-test, deflazacort vs. prednisone) (AW081561, Nucleic Acid No. 2012): 0.0484
p-value (AW135013, Nucleic Acid No. 2109): 0.0166
p-value (t-test, deflazacort vs. prednisone) (AW504458, Nucleic Acid No. 2032): 0.0109
p-value (t-test, deflazacort vs prednisone) (AW590838, Nucleic Acid No. 2082): 0.0481
p-value (t-test, deflazacort vs. prednisone) (AW978350, Nucleic Acid No. 2027): 0.0388
p-value (BC001152, Nucleic Acid No. 2025): 0.0219
p-value (t-test, deflazacort vs. prednisone) (BC003542, Nucleic Acid No. 2048): 0.00709
p-value (BC006230, Nucleic Acid No. 2123): 0.0131
p-value (BC006454, Nucleic Acid No. 1650): 0.0101
p-value (t-test, deflazacort vs. prednisone) (BC012090, Nucleic Acid No. 2043): 0.0289
p-value (BC017896, Nucleic Acid No. 487): 0.0133
p-value (t-test, deflazacort vs. prednisone) (BC025237, Nucleic Acid No. 2047): 0.0274
p-value (t-test, deflazacort vs. prednisone) (BC039454, Nucleic Acid No. 2011): 0.0311
p-value (BC042832, Nucleic Acid No. 2103): 0.0214
p-value (t-test, deflazacort vs prednisone) (BC043187, Nucleic Acid No. 2073): 0.0446
p-value (BE207758, Nucleic Acid No. 1913): 0.00136
p-value (BE348688, Nucleic Acid No. 1904): 0.0249
p-value (BE439987, Nucleic Acid No. 1711): 0.0106
p-value (BE465380, Nucleic Acid No. 1911): 0.0346
p-value (BE550881, Nucleic Acid No. 2102): 0.0423
p-value (t-test, deflazacort vs. prednisone) (BE563442, Nucleic Acid No. 2062): 0.00559
p-value (BE727883, Nucleic Acid No. 2120): 0.0383
p-value (t-test, deflazacort vs. prednisone) (BE880245, Nucleic Acid No. 2033): 0.00733
p-value (t-test, deflazacort vs prednisone) (BE964989, Nucleic Acid No. 2085): 0.0484
p-value (t-test, deflazacort vs. prednisone) (BF338947, Nucleic Acid No. 2056): 0.0148
p-value (BF477544, Nucleic Acid No. 1895): 0.0499
p-value (t-test, deflazacort vs prednisone) (BF514079, Nucleic Acid No. 1363): 0.0432
p-value (BF575213, Nucleic Acid No. 2122): 0.00608
p-value (t-test, deflazacort vs. prednisone) (BF694956, Nucleic Acid No. 2041): 0.0262
p-value (t-test, deflazacort vs prednisone) (BG029530, Nucleic Acid No. 2074): 0.000753
p-value (t-test, deflazacort vs prednisone) (BG249565, Nucleic Acid No. 2087): 0.00518
p-value (D87291, Nucleic Acid No. 2077): 0.0322
p-value (H12280, Nucleic Acid No. 2098): 0.038
p-value (L18865, Nucleic Acid No. 2114): 0.034
p-value (t-test, deflazacort vs. prednisone) (M15330, Nucleic Acid No. 2060): 0.0137
p-value (t-test, deflazacort vs prednisone) (M35999, Nucleic Acid No. 2071): 0.014
p-value (t-test, deflazacort vs. prednisone) (M60626, Nucleic Acid No. 2020): 0.0333
p-value (N36408, Nucleic Acid No. 2019): 0.0384
p-value (N59653, Nucleic Acid No. 1900): 0.044
p-value (t-test, deflazacort vs prednisone) (N66633, Nucleic Acid No. 2090): 0.0434
p-value (t-test, deflazacort vs. prednisone) (NM_000404, Nucleic Acid No. 2029): 0.000522
p-value (t-test, deflazacort vs prednisone) (NM_000419, Nucleic Acid No. 2070): 0.0421
p-value (NM_000484, Nucleic Acid No. 1261): 0.00856
p-value (NM_000565, Nucleic Acid No. 2064): 0.0489
p-value (t-test, deflazacort vs. prednisone) (NM_000576, Nucleic Acid No. 2059): 0.00127
p-value (NM_001109, Nucleic Acid No. 1899): 0.0468
p-value (NM_001154, Nucleic Acid No. 1902): 0.0116
p-value (t-test, deflazacort vs. prednisone) (NM_001456, Nucleic Acid No. 2015): 0.0172
p-value (t-test, deflazacort vs. prednisone) (NM_001553, Nucleic Acid No. 2057): 0.0297
p-value (t-test, deflazacort vs. prednisone) (NM_001557, Nucleic Acid No. 2065): 0.0421
p-value (NM_001637, Nucleic Acid No. 1903): 0.0269
p-value (NM_001659, Nucleic Acid No. 1908): 0.00749
p-value (NM_001690, Nucleic Acid No. 1917): 0.021
p-value (t-test, deflazacort vs. prednisone) (NM_002068, Nucleic Acid No. 2030): 0.00544
p-value (t-test, deflazacort vs. prednisone) (NM_002087, Nucleic Acid No. 2038): 0.0294
p-value (t-test, deflazacort vs. prednisone) (NM_002110, Nucleic Acid No. 2040): 0.0352
p-value (t-test, deflazacort vs. prednisone) (NM_002155, Nucleic Acid No. 2049): 0.0206
p-value (t-test, deflazacort vs prednisone) (NM_002199, Nucleic Acid No. 2068): 0.0118
p-value (t-test, deflazacort vs prednisone) (NM_002229, Nucleic Acid No. 2076): 0.0299
p-value (NM_003644, Nucleic Acid No. 2023): 0.00498
p-value (NM_003879, Nucleic Acid No. 1948): 0.0159
p-value (NM_004041, Nucleic Acid No. 1914): 0.0324
p-value (t-test, deflazacort vs. prednisone) (NM_004517, Nucleic Acid No. 2066): 0.0161
p-value (NM_004735, Nucleic Acid No. 2106): 0.0293
